In US20090004185A1, “AMINO-SUBSTITUTED QUINAZOLINE DERIVATIVES AS INHIBITORS OF BETA-CATENIN/TCF-4 PATHWAY AND CANCER TREATMENT AGENTS” (WYETH, priority 2007, published 2009) one finds IC50 data, which are given here for 25 compounds.

The subject of one test is β-catenin/Tcf-4. Nature of the test: cells. The following applies: 24 hours of incubation with compound, ratio Firefly/Renilla luciferase. In kind it is cell-based. The gist of the method: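 SW480-derived lines with integrated reporters (Tcf-4-driven firefly luciferase; SV40 firefly as specificity control; SV40 Renilla for cell number/toxicity), treated 24 hours with titrated compounds, final 0.316% DMSO. Dual-luciferase read-out; firefly/Renilla ratio as % of control, duplicate plates, IC50 (nM) from curve fit.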

A further test has as its system SV40-Luc. Nature of the test: SV40-Luc control luciferase reporter assay, SV 5A8 cell line (SV40-Luc and SV40-R-Luc), control for non-specific inhibitors. The test is classed as cell-based, human. Particulars: SV 5A8 cells derived from SW480, 24 hours of incubation with compound, ratio Firefly/Renilla luciferase. The gist of the method:
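SW480-derived lines with integrated reporters: SV 5A8 (SV40-Luc + SV40-R-Luc), Tcf 33.13 and Tcf 22C11 (Tcf-4-Luc + SV40-R-Luc). Compounds titrated onto cells for 24 h, final DMSO 0.316%. Firefly and Renilla luminescence read by dual-luciferase; firefly/Renilla ratio as % of control fitted for IC50.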
(In general: A reporter such as luciferase makes a cellular process visible.)

[1] abbreviates: Homo sapiens, SW480, 24 h, Tcf 33.13 cells derived from SW480.
The mark [2] stands for this setting: Homo sapiens, Tcf22C11, 24 h, Tcf 22C11 cells derived from SW480.
[3] abbreviates: Tcf 22C11 cells derived from SW480.
The mark [4] stands for this setting: Tcf 33.13 cells derived from SW480.

With `Cc1ccc2nc(N(C)C)nc(NCc3ccc(NC(=O)C4CCN(Cc5ccccc5)CC4)cc3)c2c1` [Example 148, 1-benzyl-N-[4-({[2-(dimethylamino)-6-methylquinazolin-4-yl]amino}methyl)phenyl]piperidine-4-carboxamide], the IC50 (as a rule, the midpoint of a concentration-inhibition curve) with β-catenin/Tcf-4 (setting [1]) was 1030 nM; with β-catenin/Tcf-4 (setting [2]) it was 1070 nM; in the test on SV40-Luc (Homo sapiens, SV5A8, 24 h), above 9170 nM.

As to `Cc1ccc2c(NCc3ccc(NC(=O)c4ccc(F)cc4)cc3)nc(N3CCN(C=O)CC3)nc2c1` [Example 217, 4-fluoro-N-[4-({[2-(4-formylpiperazin-1-yl)-7-methylquinazolin-4-yl]amino}methyl)phenyl]benzamide], the concentration for half-maximal inhibition (IC50) in the test on β-catenin/Tcf-4 (setting [1]) is 3680 nM; in the test with β-catenin/Tcf-4 (setting [2]), 1860 nM; with SV40-Luc (Homo sapiens, SV5A8, 24 h) it was above 16300 nM.

As to `Cc1ccc2c(NCc3ccc(NC(=O)Nc4ccc(Cl)cc4)cc3)nc(N(C)C)nc2c1` [Example 177, N-(4-chlorophenyl)-N′-[4-({[2-(dimethylamino)-7-methylquinazolin-4-yl]amino}methyl)phenyl]urea], the 50% inhibitory concentration (IC50) is above 5420 nM in the test with β-catenin/Tcf-4 (setting [1]); above 5420 nM in the test on β-catenin/Tcf-4 (setting [2]); above 10800 nM with SV40-Luc (Homo sapiens, SV5A8, 24 h).

For the compound `CNc1nc(NCc2ccc(NC(=O)c3cc(F)cc(F)c3)cc2)c2cc(C)ccc2n1` [Example 41, 3,5-difluoro-N-[4-({[6-methyl-2-(methylamino)quinazolin-4-yl]amino}methyl)phenyl]benzamide], the 50% inhibitory concentration (IC50) with β-catenin/Tcf-4 (setting [1]) is 1650 nM; with β-catenin/Tcf-4 (setting [2]), 2320 nM; in the test on SV40-Luc (Homo sapiens, SV5A8, 24 h) it was above 5770 nM.

Regarding `Cc1ccc2c(NCc3ccc(NC(=O)C4CCN(Cc5ncc[nH]5)CC4)cc3)nc(N(C)C)nc2c1` [Example 248, N-[4-({[2-(dimethylamino)-7-methylquinazolin-4-yl]amino}methyl)phenyl]-1-(1H-imidazol-2-ylmethyl)piperidine-4-carboxamide], the IC50 in the test on β-catenin/Tcf-4 (setting [1]) was above 20100 nM; in the test on β-catenin/Tcf-4 (setting [2]) it was above 20100 nM; with SV40-Luc (Homo sapiens, SV5A8, 24 h), above 20100 nM.

For `Cc1ccc2c(NCc3ccc(NC(=O)c4ccc(F)cc4)cc3)nc(N3CCC[C@H]3CN3CCCC3)nc2c1` [Example 228, 4-fluoro-N-{4-[({7-methyl-2-[(2S)-2-(pyrrolidin-1-ylmethyl)pyrrolidin-1-yl]quinazolin-4-yl}amino)methyl]phenyl}benzamide], the IC50 with β-catenin/Tcf-4 (setting [1]) was 2210 nM; with β-catenin/Tcf-4 (setting [2]), 1900 nM; in the test with SV40-Luc (Homo sapiens, SV5A8, 24 h), above 4640 nM.

On to `O=C(O)CNc1nc(NCc2ccc(NC(=O)c3ccc(F)cc3)cc2)c2ccccc2n1` [Example 127, N-[4-({4-[(4-fluorobenzoyl)amino]benzyl}amino)quinazolin-2-yl]glycine], for which the IC50 in the test with β-catenin/Tcf-4 (setting [1]) was above 22400 nM; in the test with β-catenin/Tcf-4 (setting [2]), above 22400 nM; in the test with SV40-Luc (Homo sapiens, SV5A8, 24 h), above 22400 nM.

Take `O=C(Nc1ccc(CNc2nc(N3CCCC3)nc3ccc(C(F)(F)F)cc23)cc1)c1ccc(Cl)cc1` [Example 163]: the IC50 in the test with β-catenin/Tcf-4 (setting [3]) was 6990 nM; in the test on β-catenin/Tcf-4 (setting [4]) it was 6550 nM; in the test on SV40-Luc, above 9510 nM.

As to “N-[4-({[6-nitro-2-(methylamino)quinazolin-4-yl]amino}methyl)phenyl]nicotinamide [Example 188]”, the IC50 in the test on β-catenin/Tcf-4 (setting [3]), in the test on β-catenin/Tcf-4 (setting [4]) and in the test with SV40-Luc was above 23300 nM throughout.

As to `Cc1ccc2c(NCc3ccc(NC(=O)C4CCN(Cc5ccc(Cl)cc5)CC4)cc3)nc(N(C)C)nc2c1` [Example 253, 1-(4-chlorobenzyl)-N-[4-({[2-(dimethylamino)-7-methylquinazolin-4-yl]amino}methyl)phenyl]piperidine-4-carboxamide], the half-inhibitory concentration (IC50) in the test on β-catenin/Tcf-4 (setting [1]) was 255 nM; with β-catenin/Tcf-4 (setting [2]) it was 390 nM; in the test on SV40-Luc (Homo sapiens, SV5A8, 24 h) it was above 4060 nM.

On to `C/C=C/c1ccc2c(NCc3ccc(NC(=O)c4ccc(Cl)nc4)cc3)nc(N(C)C)nc2c1` [Example 112, 6-chloro-N-{4-[({2-(dimethylamino)-7-[(1E)-prop-1-en-1-yl]quinazolin-4-yl}amino)methyl]phenyl}nicotinamide], for which the IC50 was 118 nM with β-catenin/Tcf-4 (setting [1]); 249 nM with β-catenin/Tcf-4 (setting [2]); above 4910 nM with SV40-Luc (Homo sapiens, SV5A8, 24 h).

Turning to `Cc1ccc2nc(N3C[C@@H](C)N[C@@H](C)C3)nc(NCc3ccc(NC(=O)C4CCN(Cc5ccccc5)CC4)cc3)c2c1` [Example 78, 1-benzyl-N-{4-[({2-[(3R,5S)-3,5-dimethylpiperazin-1-yl]-6-methylquinazolin-4-yl}amino)methyl]phenyl}piperidine-4-carboxamide], the 50% inhibitory concentration (IC50) in the test on β-catenin/Tcf-4 (setting [1]) was 955 nM; in the test with β-catenin/Tcf-4 (setting [2]), 1390 nM; with SV40-Luc (Homo sapiens, SV5A8, 24 h), above 17300 nM.

In the case of `CNc1nc(NCc2ccc(NC(=O)C3CCN(Cc4ccc(F)cc4)CC3)cc2)c2cc(C(F)(F)F)ccc2n1` [Example 160], the results for the half-inhibitory concentration (IC50) with β-catenin/Tcf-4 (setting [3]), in the test with β-catenin/Tcf-4 (setting [4]) and in the test on SV40-Luc were 1450 nM, above 2210 nM and above 4410 nM, respectively.

`Cc1ccc2c(NCc3ccc(NC(=O)C4CCN(C5CCCCC5)CC4)cc3)nc(N(C)C)nc2c1` [Example 245, 1-cyclohexyl-N-[4-({[2-(dimethylamino)-7-methylquinazolin-4-yl]amino}methyl)phenyl]piperidine-4-carboxamide]: the IC50 in the test on β-catenin/Tcf-4 (setting [1]) is 809 nM; in the test on β-catenin/Tcf-4 (setting [2]), 754 nM; in the test on SV40-Luc (Homo sapiens, SV5A8, 24 h), above 9990 nM.

Consider `Cc1ccc2c(NCc3ccc(NC(=O)C4CCN(Cc5ccccc5)CC4)cc3)nc(N3CCC(N4CCCC4)CC3)nc2c1` [Example 135, 1-benzyl-N-[4-({[7-methyl-2-(4-pyrrolidin-1-ylpiperidin-1-yl)quinazolin-4-yl]amino}methyl)phenyl]piperidine-4-carboxamide], for which the concentration for half-maximal inhibition (IC50) in the test on β-catenin/Tcf-4 (setting [1]) is 853 nM; in the test on β-catenin/Tcf-4 (setting [2]), 965 nM; in the test with SV40-Luc (Homo sapiens, SV5A8, 24 h) it was above 8090 nM.

Take `CN(C)c1nc(NCc2ccc(NC(=O)c3ccc(F)cc3)cc2)c2ccc(-c3ccc(C=O)cc3)cc2n1` [Example 99, N-[4-({[2-(dimethylamino)-7-(4-formylphenyl)quinazolin-4-yl]amino}methyl)phenyl]-4-fluorobenzamide]: the IC50 in the test on β-catenin/Tcf-4 (setting [1]) is 2680 nM; in the test with β-catenin/Tcf-4 (setting [2]), 6820 nM; in the test with SV40-Luc (Homo sapiens, SV5A8, 24 h), above 17900 nM.

`C/C=C/c1ccc2c(NCc3ccc(NC(=O)c4ccc(F)cc4)cc3)nc(N(C)C)nc2c1` [Example 96, N-{4-[({2-(dimethylamino)-7-[(1E)-prop-1-en-1-yl]quinazolin-4-yl}amino)methyl]phenyl}-4-fluorobenzamide]: the concentration for half-maximal inhibition (IC50) is 511 nM in the test on β-catenin/Tcf-4 (setting [1]); 497 nM in the test with β-catenin/Tcf-4 (setting [2]); above 2540 nM in the test on SV40-Luc (Homo sapiens, SV5A8, 24 h).

Turning to `CNc1nc(NCc2ccc(NC(=O)c3ccc(Cl)c(Cl)c3)cc2)c2cc(C)ccc2n1` [Example 37, 3,4-dichloro-N-[4-({[6-methyl-2-(methylamino)quinazolin-4-yl]amino}methyl)phenyl]benzamide], the half-maximal inhibitory concentration (IC50) with β-catenin/Tcf-4 (setting [1]) is 5280 nM; in the test with β-catenin/Tcf-4 (setting [2]), above 10700 nM; in the test with SV40-Luc (Homo sapiens, SV5A8, 24 h), above 21400 nM.

With `Cc1ccc2c(NCc3ccc(NC(=O)C4CCN(Cc5ccc(F)cc5F)CC4)cc3)nc(N(C)C)nc2c1` [Example 254, 1-(2,4-difluorobenzyl)-N-[4-({[2-(dimethylamino)-7-methylquinazolin-4-yl]amino}methyl)phenyl]piperidine-4-carboxamide], the IC50 in the test with β-catenin/Tcf-4 (setting [1]) was 85 nM; with β-catenin/Tcf-4 (setting [2]), 168 nM; with SV40-Luc (Homo sapiens, SV5A8, 24 h), above 4590 nM.

For the compound `CNc1nc(NCc2ccc(NC(=O)c3ccc(F)cc3Cl)cc2)c2cc(C)ccc2n1` [Example 28, 2-chloro-4-fluoro-N-[4-({[6-methyl-2-(methylamino)quinazolin-4-yl]amino}methyl)phenyl]benzamide], the IC50 in the test on β-catenin/Tcf-4 (setting [1]) is 904 nM; in the test with β-catenin/Tcf-4 (setting [2]), above 1390 nM; in the test with SV40-Luc (Homo sapiens, SV5A8, 24 h), above 1390 nM.

Regarding `CNc1nc(NCc2ccc(NC(=O)c3ccc(Cl)nc3)cc2)c2cc(OC)c(OC)cc2n1` [Example 9, 6-chloro-N-[4-({[6,7-dimethoxy-2-(methylamino)quinazolin-4-yl]amino}methyl)phenyl]nicotinamide], the IC50 was 1070 nM with β-catenin/Tcf-4 (setting [1]); 888 nM in the test on β-catenin/Tcf-4 (setting [2]); 1520 nM in the test with SV40-Luc (Homo sapiens, SV5A8, 24 h).

Take `Cc1ccc2nc(N3CCCCCC3)nc(NCc3ccc(NC(=O)c4ccc(F)cc4)cc3)c2c1` [Example 56, N-(4-{[(2-azepan-1-yl-6-methylquinazolin-4-yl)amino]methyl}phenyl)-4-fluorobenzamide]: the IC50 with β-catenin/Tcf-4 (setting [1]) was 2010 nM; in the test on β-catenin/Tcf-4 (setting [2]) it was 1740 nM; with SV40-Luc (Homo sapiens, SV5A8, 24 h), above 5170 nM.

Regarding `C#Cc1ccc2c(NCc3ccc(NC(=O)c4ccc(F)cc4)cc3)nc(N(C)C)nc2c1` [Example 108, N-[4-({[2-(dimethylamino)-7-ethynylquinazolin-4-yl]amino}methyl)phenyl]-4-fluorobenzamide], the IC50 with β-catenin/Tcf-4 (setting [1]) was 236 nM; with β-catenin/Tcf-4 (setting [2]), 508 nM; in the test with SV40-Luc (Homo sapiens, SV5A8, 24 h), above 5250 nM.

In the case of `C/C=C\c1ccc2c(NCc3ccc(NC(=O)C4CCN(Cc5ccccc5)CC4)cc3)nc(N(C)C)nc2c1` [Example 153, 1-benzyl-N-{4-[({2-(dimethylamino)-7-[(1Z)-prop-1-en-1-yl]quinazolin-4-yl}amino)methyl]phenyl}piperidine-4-carboxamide], the IC50 in the test on β-catenin/Tcf-4 (setting [1]) is 305 nM; in the test with β-catenin/Tcf-4 (setting [2]) it was 462 nM; in the test with SV40-Luc (Homo sapiens, SV5A8, 24 h), above 4110 nM.

`Cc1ccc2nc(N(C)C)nc(NCc3ccc(NC(=O)Nc4ccc(F)cc4)cc3)c2c1` [Example 181, N-[4-({[2-(dimethylamino)-6-methylquinazolin-4-yl]amino}methyl)phenyl]-N′-(4-fluorophenyl)urea]: the 50% inhibitory concentration (IC50) in the test with β-catenin/Tcf-4 (setting [1]) is 549 nM; in the test with β-catenin/Tcf-4 (setting [2]), 719 nM; with SV40-Luc (Homo sapiens, SV5A8, 24 h), above 2810 nM.
